Reference: Sander's compilation of Henry's law constants (doi:10.1021/es00033a018)

Assay: Henry solubility constant Hcp at 298.15 K (mol/(m3 Pa))
Details: reference: Wright et al. (1992)
With `ClCC(Cl)Cl` [1,1,2-trichloroethane] the “Henry solubility constant Hcp” value was 0.011. With `ClC(Cl)C(Cl)Cl` [1,1,2,2-tetrachloroethane] the “Henry solubility constant Hcp” value was 0.022. With `ClCC(Cl)(Cl)Cl` [1,1,1,2-tetrachloroethane] the “Henry solubility constant Hcp” value was 0.004. In the case of `BrC(Br)Br` [tribromomethane], the “Henry solubility constant Hcp” value was 0.024. In the case of `ClC=C(Cl)Cl` [trichloroethene], the “Henry solubility constant Hcp” value was 0.0011. With `CC(Cl)(Cl)Cl` [1,1,1-trichloroethane] the “Henry solubility constant Hcp” value was 0.0006. With `CC(Cl)CCl` (stereo unspecified) [1,2-dichloropropane] the “Henry solubility constant Hcp” value was 0.0036. In the case of `ClCCl` [dichloromethane], the “Henry solubility constant Hcp” value was 0.0039. For `ClC=CCCl` [1,3-dichloropropene], the “Henry solubility constant Hcp” value was 0.0064. In the case of `BrCBr` [dibromomethane], the “Henry solubility constant Hcp” value was 0.011. In the case of `ClC(Cl)(Cl)Cl` [tetrachloromethane], the “Henry solubility constant Hcp” value was 0.00029.
